Data published in patent US20100144853A1, “NOVEL COMBINED ADMINISTRATION” (priority 2008, published 2010).

Test: Stability of COMPOUND A in human intestinal fluids, Procedure F (suspension, no separation of excess), first table
Assay type: in vitro ADME
Settings: summary of Example 5
Experimental: Fasted Intestinal Fluids: the fluids from 4 different subjects were collected with a naso-jejunal tube after fasting overnight and pooled.
Procedure F (COMPOUND A and COMPOUND B in suspension, the degradation immediately stopped without separation of excess compound): Stock K=COMPOUND B suspension (0.5 mg/mL)
Dilute 1 part of COMPOUND B suspension (stock J) with 3 parts of FeSSIF pH6.5 solution.
500 μL of freshly thawed intestinal fluids (fasted and stimulated state) were added to 1.2 mg of COMPOUND A in a 1 mL glass vial. The suspended compound was stirred for 15 min at 37° C. to obtain wetting and a homogenous suspension. In parallel, 4 glass vials were prepared with 20 μL of a COMPOUND B suspension at different concentrations. These concentrations were obtained by mixing FeSSIF pH6.5 and COMPOUND B suspension (stock K) in different ratios, respectively 1:[…], 1:1, 0:1 to obtain 0, 1, 2 and 4% related to COMPOUND A. At time zero, 100 μL of COMPOUND A suspension preincubated at 37° C. were added to the 20 μL COMPOUND B suspension. The mixture was incubated at 37° C. with gentle stirring. After 15 min and 60 min, the reaction was stopped by mixing a 50 μL sample with 150 μL isopropanol and centrifuged at 5′000 rpm during 5 min. The clear supernatant was analyzed for the hydrolysis product and its oxidized form by HPLC.

CCCCCCCCCCC[C@@H](C[C@@H]1OC(=O)[C@H]1CCCCCC)OC(=O)[C@H](CC(C)C)NC=O [COMPOUND B, 1-(3-hexyl-4-oxo-oxetan-2-yl)tridecan-2-yl 2-formyl-amino-4-methyl-pentanoate, reference compound]
Effect of COMPOUND B on gastrointestinal enzyme induced hydrolytic degradation of COMPOUND A: efficiently prevents gastrointestinal enzyme induced hydrolytic degradation of COMPOUND A
